Reference: patent publication US7183075B2, “Purified and isolated potassium-chloride cotransporter nucleic acids and polypeptides and therapeutic and screening methods using same” (Vanderbilt University, priority 2000, dated 2007)
Read-outs that look alike come from different tables or passages of the source.

Target: T1, mKCC4 (Mus musculus, UniProt Q9WVL3)
T1 construct: a full-length mKCC4 cDNA was used as a standard in the Xenopus expression vector pGEMHE; expressed in transfected cells; host or cells: Xenopus laevis oocytes injected with cRNA (pGEMHE, T7 transcript)
T1 sequence (Q9WVL3 1-1083 L71X/L155X/L467X/L586X/L639X/L1023X): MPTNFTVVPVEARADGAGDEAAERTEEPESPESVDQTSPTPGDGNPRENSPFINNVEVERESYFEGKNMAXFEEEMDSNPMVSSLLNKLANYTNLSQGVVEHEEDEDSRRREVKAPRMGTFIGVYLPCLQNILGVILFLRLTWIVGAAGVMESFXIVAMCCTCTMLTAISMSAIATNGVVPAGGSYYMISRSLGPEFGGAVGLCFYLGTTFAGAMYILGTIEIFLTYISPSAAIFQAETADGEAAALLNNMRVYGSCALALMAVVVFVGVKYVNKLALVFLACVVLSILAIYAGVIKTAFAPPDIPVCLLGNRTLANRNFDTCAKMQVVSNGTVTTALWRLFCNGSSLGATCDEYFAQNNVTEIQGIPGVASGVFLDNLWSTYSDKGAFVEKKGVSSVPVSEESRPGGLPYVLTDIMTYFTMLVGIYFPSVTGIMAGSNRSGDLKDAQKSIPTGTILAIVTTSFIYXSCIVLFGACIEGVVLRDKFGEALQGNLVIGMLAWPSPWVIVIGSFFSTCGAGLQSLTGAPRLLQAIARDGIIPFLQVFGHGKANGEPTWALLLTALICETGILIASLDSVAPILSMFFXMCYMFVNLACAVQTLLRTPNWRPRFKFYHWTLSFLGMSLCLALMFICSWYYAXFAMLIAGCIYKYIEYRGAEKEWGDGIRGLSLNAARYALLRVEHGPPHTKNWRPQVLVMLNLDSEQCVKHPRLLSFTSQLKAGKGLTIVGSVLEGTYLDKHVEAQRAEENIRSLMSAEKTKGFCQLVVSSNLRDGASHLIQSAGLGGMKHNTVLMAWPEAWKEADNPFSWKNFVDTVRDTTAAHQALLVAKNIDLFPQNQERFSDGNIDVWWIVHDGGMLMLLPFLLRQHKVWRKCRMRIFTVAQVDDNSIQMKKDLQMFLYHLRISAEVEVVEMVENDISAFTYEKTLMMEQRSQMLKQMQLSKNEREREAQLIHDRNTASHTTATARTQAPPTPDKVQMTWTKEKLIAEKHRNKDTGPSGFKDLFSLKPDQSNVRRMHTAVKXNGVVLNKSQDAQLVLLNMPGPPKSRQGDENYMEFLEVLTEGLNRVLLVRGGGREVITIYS
Assay: 86Rb+ uptake (K+-Cl- cotransport) in Xenopus oocytes injected with mKCC4 cRNA
Type: cell-based
Settings: for KCC4 function remaining: 100 μM DIDS; for relative KCC4 activity: 2 mM diuretic; for effect on activation of KCC4 by cell swelling: calyculin A 100 nM, okadaic acid 1 nM, cypermethrin 100 pM
Description: Oocytes were surgically collected from anesthetized female Xenopus adults under 0.17% tricaine and incubated for 1 hour with vigorous shaking in frog Ringer ND96 (96 mM sodium chloride, 2 mM potassium chloride, 1.8 mM calcium chloride, 1.0 mM magnesium chloride, and 5 mM Hepes/Tris, pH 7.4) in the presence of 2 mg/ml collagenase B. Oocytes were then washed four times in ND96, manually defolliculated, and incubated overnight in ND96 at 18° C. On the next day, defolliculated stage V–VI oocytes were injected with 50 nl of water or a solution containing cRNA at a concentration of 0.25–0.5 μg/μl (25 ng/oocyte). Oocytes were incubated at 17–18° C. in ND96 (96 mM sodium chloride, 2 mM potassium chloride, 1.8 mM calcium chloride, 1.0 mM magnesium chloride, and 5 mM Hepes/Tris, pH 7.4), supplemented with 2.5 mM sodium pyruvate and 5 mg/100 ml gentamicin, for 3–4 days. The incubation medium was changed every 24 hours. On the day of the experiment, oocytes were switched to Cl^−-free ND96 (96 mM Na^+ Na^+ isethionate, 2 mM K^+ gluconate, 6 mM Ca^2+ gluconate, 1 mM Mg^2+ gluconate, 5 mM Hepes, 2.5 mM sodium pyruvate, 5 mg/100 ml gentamicin, pH 7.4) for 2 hours prior to the uptake assay.
For functional expression and in vitro translation, a full-length mKCC4 cDNA was used as a standard in the Xenopus expression vector pGEMHE (Liman et al. (1992) Neuron 9:861–871). The resulting construct contains nucleotides 55–3812 of mKCC4 (SEQ ID NO:13). For functional comparison with mKCC4, a full-length rabbit KCC1 cDNA was subcloned into pGEMHE. […] […] Transcription product integrity was confirmed on agarose gels, and concentration was determined by absorbance reading at 260 nm (DU 640 available from Beckman of Fullerton, Calif.).
K^+—Cl^− cotransport was assessed by measuring tracer ^86Rb^+ uptake (NEN® Life Science Products of Boston, Mass.) in experimental groups of at least 15 oocytes. […] All uptake solutions also contained 1.8 mM CaCl2, 1 mM MgCl2, 5 mM Hepes, pH 7.4, and were supplemented with 1 mM ouabain and […] ^86Rb^+. Isotonic conditions were generated by supplementing the same solutions with 3.5 g/100 ml sucrose to reach isosmolar conditions for oocytes (˜210 mOsm/kg). Ouabain was added to prevent ^86Rb^+ uptake via the Na^+—K^+-ATPase. The absence of extracellular Na^+ and the hypotonicity of the uptake medium prevented ^86Rb^+ uptake via the endogenous Na^+—K^+-2Cl^− cotransporter that is present in oocytes (Gamba et al. (1994) J Biol Chem 269:17713–17722).
All uptake assays were performed at 32° C. At the end of the uptake period, oocytes were washed five times in ice-cold uptake solution without isotope to remove extracellular fluid tracer. Oocytes were dissolved in 10% SDS, and tracer activity was determined for each oocyte by β-scintillation counting.
To determine the ion transport kinetics of KCC4 and KCC1, ^86Rb^+ uptake experiments were performed in variable concentrations of K^+ and Cl^−. […]

[1] = KCC4, counterion fixed at 50 mM, hypotonic
[2] = KCC4, counterion fixed at 50 mM, hypotonic, read-out: calculated apparent Km for extracellular ion concentration
[3] = 2 mM extracellular K+, hypotonic
[4] = 50 mM extracellular K+, hypotonic

## [Ba+2].[Cl-].[Cl-] [BaCl2]
10 mM BaCl2 in hypotonic uptake medium
  KCC4-induced influx, % of uptake in control oocytes: 58±4.3%

## Cl [Chloride]
KCC4
  Hill coefficient: 1.06±0.3
[1]
  calculated apparent Vmax for extracellular ion concentration: 41,440±4,174 pmol×oocyte^−1×hour^−1
[2]
  Km: 16.1 ± 4.2 mM
KCC4, read-out: Chloride Km
  Km: 15.3 mM

## O=S(=O)(O)c1cc(N=C=S)ccc1C=Cc1ccc(N=C=S)cc1S(=O)(=O)O [DIDS]
[3]
  KCC4 function remaining: 65±10%
[4]
  KCC4 function remaining: 13±4%

## CCCCC1(C2CCCC2)Cc2cc(OCC(=O)O)c(Cl)c(Cl)c2C1=O (stereo not drawn) [DIOA]
100 μM DIOA, hypotonic
  effect on KCC4-induced 86Rb+ uptake: inhibition

## CCN1C(=O)C=CC1=O [NEM, N-ethylmaleimide]
1 mM NEM, hypotonic
  reduction of KCC4-induced 86Rb+ uptake: 68%
1 mM NEM, isotonic
  fold activation of KCC4: 5 fold
KCC4, 1 mM NEM, isotonic
  86Rb+ uptake in NEM-treated group: 1062±70 pmol×oocyte^−1×hour^−1

## [K+] [Potassium]
KCC4
  Hill coefficient: 1.08±0.2
[1]
  calculated apparent Vmax for extracellular ion concentration: 32,370±2,115 pmol×oocyte^−1×hour^−1
[2]
  Km: 17.5 ± 2.7 mM
KCC4, read-out: Potassium Km
  Km: 17.5 mM

## CCCCNc1cc(C(=O)O)cc(S(N)(=O)=O)c1Oc1ccccc1 [bumetanide]
[3]
  relative KCC4 activity: 90±4%
[4]
  relative KCC4 activity: 17±4%
KCC4, 10 mM extracellular K+, read-out: apparent half-maximal inhibition (K=0.5) of Cl−-dependent 86Rb+ uptake
  IC50: ~900 µM

## COC[C@@H]([C@H](O)[C@H](O)C(=O)NCC[C@H](C)c1nc(/C=C/C[C@@H]2O[C@]3(C[C@@H](O)[C@@H]2C)O[C@H]([C@H](C[C@H](O)[C@H](C)[C@H](O)[C@H](C)/C=C(C)/C(C)=C/C=C/C(C)=C\C#N)OC)[C@H](OP(=O)(O)O)C3(C)C)co1)N(C)C [calyculin A]
hypotonic
  effect on activation of KCC4 by cell swelling: completely prevents the activation

## CC1(C)C(C=C(Cl)Cl)C1C(=O)OC(C#N)c1cccc(Oc2ccccc2)c1 (stereo not drawn) [cypermethrin]
hypotonic
  effect on activation of KCC4 by cell swelling: neither okadaic acid, nor cypermethrin prevented this activation

## C=C1[C@@H](O)[C@@H]2O[C@]3(CC[C@H](/C=C/[C@@H](C)[C@@H]4CC(C)=C[C@@]5(O[C@H](C[C@@](C)(O)C(=O)O)CC[C@H]5O)O4)O3)CC[C@H]2O[C@@H]1[C@@H](O)C[C@H](C)[C@H]1O[C@@]2(CCCCO2)CC[C@H]1C [okadaic acid]
hypotonic
  effect on activation of KCC4 by cell swelling: neither okadaic acid, nor cypermethrin prevented this activation

## NS(=O)(=O)c1cc2c(cc1Cl)NC(C(Cl)Cl)NS2(=O)=O (stereo not drawn) [trichlormethiazide]
[3]
  relative KCC4 activity: 79±3%
[4]
  relative KCC4 activity: 57±9%

## HgCl2 [Hg—Cl2]
50 μM HgCl2, hypotonic
  response of KCC4 to mercury: sensitive
